These results are taken from patent publication US20220226270A1, “VERY-LONG-CHAIN POLYUNSATURATED FATTY ACIDS, ELOVANOID HYDROXYLATED DERIVATIVES, AND METHODS OF USE” (Board of Supervisors of Louisiana State University and …, priority 2019, published 2022).

Experiment [1] deals with cerebral cortical mixed neuronal cells. As to the kind of experiment: Oxygen glucose deprivation (OGD) in cerebral cortical mixed neuronal cultures. As to conditions: for neuroprotection compared to OGD alone (Hoechst-positive nuclei, calcein-positive cell counting or MTT): 90 mins OGD, added after 2 h of reoxygenation at 200 nM, 500 nM or 1 μM, cortical mixed or hippocampal neurons; for frequency distribution of pyknotic vs non-pyknotic nuclei (nuclear size peak) after OGD: 500 nM, DIV 12, 90 min OGD, Hoechst; for neuroprotection after OGD by VLC-PUFA precursor: 250 nM, added after OGD exposure. Type of experiment: cell-based, rat. From the text: (§1) Primary cultures of cortical neurons: Primary cultures of cortical and hippocampal neurons were harvested from 18-day-old embryos (E18) taken from timed-pregnant, two-month-old Sprague-Dawley (SD) rats (Charles River Lab., Wilmington, Mass.). Briefly, timed-pregnant SD rats were euthanized and embryos were collected in sterile conditions. Embryonic brains were dissected out by forceps on ice and placed in a petri dish containing ice-cold Hank's Balanced Salt Solution (HBSS) (GIBCO). Meninges were removed under a dissecting microscope and cortical tissues were chopped into small pieces with micro-spring scissors. These tissues were transferred to 15 ml tubes containing trypsin-EDTA (0.025% in HBSS) and DNase I. The tubes were incubated in 37° C. chamber for 15 mins and were agitated every 5 mins. After stopping the trypsinization with 5 ml 10% FBS, these tissues were triturated 15 times with a fire polished Pasteur pipet. Cell clumps were left to settle for 2 mins and the supernatant was transferred to a 15 ml Eppendorf tube. The supernatant was filtered through a 70 μm pore-sized filter (Corning cell strainer) and centrifuged for 5 mins at 1000 rpm. The cells were then resuspended in Neurobasal medium (GIBCO) containing 2% B27 (GIBCO) and 2% N2 (GIBCO) supplements, along with 0.5 mM glutamine, 50 U/ml penicillin/streptomycin.
(§2) Cells were counted using a Neubauer hemocytometer. 1×10^6 cells were seeded on poly-D-lysine-coated 12 well cell culture dish (CORNING) and cultured in incubator (37° C., 5% CO2). Culture medium was first replaced after 24 h, then half of the medium was replaced with fresh medium every three days. As a result, approximately, 90% purity of neurons was obtained as determined by class-III-β tubulin, GFAP and Hoechst 33258 staining. Cells were maintained in culture for about 2 weeks until they were exposed to uncompensated oxidative stress, OGD, or NMDA excitotoxicity.
Oxygen glucose deprivation (OGD), NMDA excitotoxicity or uncompensated oxidative stress (UOS) exposure: An in vitro oxygen glucose deprivation (OGD) model was established. Primary cortical neurons were cultured from SD rat embryos. On day in vitro (DIV) 12, cells were washed with phosphate-buffered saline and incubated in glucose-free Neurobasal medium (GIBCO) for 30 mins. The cells were then placed in a modular incubator chamber and incubated in an anaerobic chamber (95% N2, 5% CO2) at 37° C. for 90 mins for OGD.
(§3) After 90 mins of OGD exposure, cells were returned to the original medium (Neurobasal medium (GIBCO) containing 2% B27 (GIBCO) and 2% N2 (GIBCO) supplements, along with 0.5 mM glutamine, 50 U/ml penicillin/streptomycin) and placed in a normoxic chamber (37° C., 5% CO2) for 2 h. Then the medium was changed with medium containing either ELV-N32 or ELV-N34 [500 nM] and maintained in a normoxic chamber (37° C., 5% CO2) for 12 h, after which cells were sampled and assayed for cell viability using different methods as previously described (25-28). Cerebral cortical mixed neuronal cells or hippocampal cells in culture were exposed to either NMDA or uncompensated oxidative stress (UOS) for 12 h by addition of either NMDA (25 μM, 50 μM, or 100 μM) concentration or by the addition of TNFα (10 ng/mL) and H2O2 (50 μM, 100 μM, or 200 μM). Cell viability and neuroprotection in the presence of ELV-N32, ELV-N34, 32:6, or 34:6 were assayed after 12 h.
Hoechst staining and unbiased image analysis: Cells were washed with 1× Dulbecco's Phosphate Buffered Saline (DPBS) containing no calcium or magnesium (GIBCO) and fixed for 10 mins using ice-cold 4% paraformaldehyde (PFA) followed by 15 mins incubation in 100% methanol. Cells were washed with 1× Phosphate Buffered Saline (PBS) pH 7.4 (GIBCO) and incubated in PBS containing 20 μM Hoechst 33258 (Molecular Probes) for 20 mins. Cells were then washed 3 times with 1× PBS and stored in 1× PBS at 4° C. until they were imaged for microscopy. […]

Experiment [2] concerns ARPE-19 cells under UOS. As to the kind of experiment: Western blot of pro-survival and pro-apoptotic proteins in ARPE-19 cells under UOS. Type of experiment: cell-based, human. To be noted: for Iduna expression (ELV): 200 nM; for Bcl-2 protein / Bcl-xL protein / Bax protein / Bid protein / Bim protein: Western blot, UOS; for Sirtuin1 (SIRT1) expression (ELV): dose-dependent, 100-200 nM; for Iduna expression (VLC-PUFA): RPE cells under UOS (FIG. 7D); for SIRT1 expression (VLC-PUFA): RPE under UOS (FIG. 7C); for Prohibitin (type-1) expression (VLC-PUFA): concentration-dependent, 100 and 250 nM (FIG. 7J). Here is the method:
ARPE19 cells at 75-80% confluence (72 h growth in DMEM/F12+10% FBS) in 6-well plates were serum-starved for 8 h before exposure. The serum-starved cells were treated with TNF-α (Sigma-Aldrich, St. Louis, Mo.) (10 ng/ml) and H2O2 (600 μM) to induce oxidative stress and challenged with increasing concentrations (50-500 nM) of VLC-PUFA (C32:6n3 and C34:6n3) simultaneously with oxidative stress for 16 h (apoptosis) and 6 h (Western-blot) before detection of apoptosis and harvesting for protein analysis. In some experiments, DHA at a concentration of 100 nM and 15-LOX-1 inhibitor PD146176 at a concentration of 1 μM was added to treat the RPE cells under stress. Cell extracts were made and protein concentrations adjusted by Bio-Rad (Hercules, Calif.) protein reagent and used for Western blot analysis.
Analysis of Proteins: Bcl-2 family proteins, SIRT1 and Proinhibitin (type-1), and Iduna proteins were analyze by Western blot analysis. In brief, 20-25 μg equivalents of each cell extracts were subject to electrophoresis on a 4-12% gel (Promega) at 125 V for 2 h. The proteins were transferred to nitrocellulose membrane by I-blot transfer apparatus. The membranes were subjected to treatment with primary antibodies specific for Bcl-2, Bcl-xL, Bax, Bid, Bim, SIRT1 and Prohibitin (type-1) (Santa Cruz Biotechnology) and Iduna antibody (Neuro-Mab Lab, UCLA, Los Angeles, Calif.) overnight at 4° C. and probed for 45 mins with secondary antibody, goat anti-mouse Ig:horseradish peroxidase, and horseradish peroxidase-conjugated anti-biotin antibody, and then proteins were evaluated by using an ECL kit (Amersham).
Background: A western blot detects proteins with antibodies after separation by electrophoresis.

In experiment [3] the test system is cerebral cortical mixed neuronal cells. As to the kind of experiment: NMDA excitotoxicity in cerebral cortical mixed neuronal cultures. To be noted: for frequency distribution of pyknotic vs non-pyknotic nuclei (nuclear size peak) after NMDA: 500 nM, NMDA 100 μM 12 h, DIV 12, Hoechst; for synergy with NPD1 in neuroprotection against NMDA excitotoxicity: ELV 200 nM + NPD1 100 nM, NMDA 100 μM, 12 h (FIG. 16A); for NMDA dose-dependent increase of apoptotic nuclei: NMDA 25, 50 or 100 μM; for neuroprotection on addition of MK801 and NPD1 together, versus ELV alone: NMDA excitotoxicity. Type of experiment: cell-based, rat.
Description: as §1, §2, §3
Hoechst staining and unbiased image analysis: Cells were washed with 1× Dulbecco's Phosphate Buffered Saline (DPBS) containing no calcium or magnesium (GIBCO) and fixed for 10 mins using ice-cold 4% paraformaldehyde (PFA) followed by 15 mins incubation in 100% methanol. Cells were washed with 1× Phosphate Buffered Saline (PBS) pH 7.4 (GIBCO) and incubated in PBS containing 20 μM Hoechst 33258 (Molecular Probes) for 20 mins. Cells were then washed 3 times with 1× PBS and stored in 1× PBS at 4° C. until they were imaged for microscopy.
One 4×4 tile mosaic was acquired from the center of each well using a Zeiss 510 Meta laser confocal microscope and LSM 510 Meta software. Images were imported into image analysis software ImageJ (National Institutes of Health, Bethesda, Md.) and batch processed using custom macros. An Otsu auto threshold was applied to each image of Hoechst-stained nuclei, and the area of each detected object was recorded. Objects with areas <10 μm^2 were excluded from analysis. To estimate percentage non-pyknotic nuclei, a size cutoff value was chosen above which objects were assumed to be non-pyknotic. […]

Consider `CC/C=C\C[C@H](O)\C=C/C=C/C=C/[C@H](O)C/C=C\C/C=C\CCCCCCCCCCCCCCC(=O)[O-].[Na+]` [ELV-N34-Na, sodium (16Z,19Z,22R,23E,25E,27Z,29S,31Z)-22,29-dihydroxytetratriaconta-16,19,23,25,27,31-hexaenoate], for which the “neuroprotection compared to OGD alone (Hoechst-positive nuclei, calcein-positive cell counting or MTT)” value in experiment [1] is “elicited neuroprotection”. Moreover, in experiment [2], the “Iduna expression (ELV)” value is recorded as “enhanced”, the Bcl-2 protein entry is listed as “enhanced the abundance”, the Bcl-xL protein entry is “enhanced the abundance” and the “Sirtuin1 (SIRT1) expression (ELV)” value is reported as “upregulate”.
With `CC/C=C\C[C@H](O)\C=C/C=C/C=C/[C@H](O)C/C=C\C/C=C\CCCCCCCCCCCCC(=O)[O-].[Na+]` [ELV-N32-Na, sodium (14Z,17Z,20R,21E,23E,25Z,27S,29Z)-20,27-dihydroxydotriaconta-14,17,21,23,25,29-hexaenoate], in experiment [1], the “frequency distribution of pyknotic vs non-pyknotic nuclei (nuclear size peak) after OGD” value is “positive rightward shift” and the “neuroprotection compared to OGD alone (Hoechst-positive nuclei, calcein-positive cell counting or MTT)” value is on record as “elicited neuroprotection”. For the same compound, in experiment [3], the “frequency distribution of pyknotic vs non-pyknotic nuclei (nuclear size peak) after NMDA” value is given as “positive rightward shift”; the “synergy with NPD1 in neuroprotection against NMDA excitotoxicity” value is given as “showed synergy”; the “NMDA dose-dependent increase of apoptotic nuclei” value was “compensated for”; the “neuroprotection on addition of MK801 and NPD1 together, versus ELV alone” value is on record as “improved the neuroprotection”. Also, in experiment [2], the “Iduna expression (ELV)” value is “enhanced”, the Bcl-2 protein entry is recorded as “enhanced the abundance”, the Bcl-xL protein result is listed as “enhanced the abundance” and the “Sirtuin1 (SIRT1) expression (ELV)” value is given as “upregulate”. In addition, in experiment [2] (UOS RPE cells), the “relative potency in upregulating SIRT1” value is given as “more potent than ELV-N34-Na”.
`CC/C=C\C/C=C\C/C=C\C/C=C\C/C=C\C/C=C\CCCCCCCCCCCCCCC(=O)O` [34:6n3, (16Z,19Z,22Z,25Z,28Z,31Z)-tetratriaconta-16,19,22,25,28,31-hexaenoic acid]: in experiment [1] (listed as 34:6), the “neuroprotection after OGD by VLC-PUFA precursor” value is “elicit neuroprotection”. In addition, the “NMDA receptor-mediated excitotoxicity (precursor, 500 nM)” value in experiment [3] (500 nM (FIG. 16H)) was “attenuates”. In experiment [2], the “Iduna expression (VLC-PUFA)” value is “upregulation”, the “SIRT1 expression (VLC-PUFA)” value is reported as “upregulation”, the Bax protein entry is listed as “down regulated” and the Bcl-2 protein result is listed as “upregulate”. In experiment [2], the Bcl-xL protein result is reported as “upregulate”, the Bid protein result is on record as “down regulated”, the Bim protein entry is on record as “down regulated” and the “Prohibitin (type-1) expression (VLC-PUFA)” value is recorded as “upregulation”.
Turning to `CC/C=C\C[C@H](O)\C=C/C=C/C=C/[C@H](O)C/C=C\C/C=C\CCCCCCCCCCCCC(=O)OC` [ELV-N32-Me, methyl (14Z,17Z,20R,21E,23E,25Z,27S,29Z)-20,27-dihydroxydotriaconta-14,17,21,23,25,29-hexaenoate], the “neuroprotection compared to OGD alone (Hoechst-positive nuclei, calcein-positive cell counting or MTT)” value in experiment [1] is listed as “elicited neuroprotection”. In experiment [3], the “synergy with NPD1 in neuroprotection against NMDA excitotoxicity” value was “showed synergy”; the “NMDA dose-dependent increase of apoptotic nuclei” value is on record as “compensated for”; the “neuroprotection on addition of MK801 and NPD1 together, versus ELV alone” value is listed as “improved the neuroprotection”. Moreover, the “relative potency of combination with NPD1” value in experiment [3] (versus ELV-N32-Na and NPD1 together) is “more potent”.
As for `CC/C=C\C[C@H](O)\C=C/C=C/C=C/[C@H](O)C/C=C\C/C=C\CCCCCCCCCCCCCCC(=O)OC` [ELV-N34-Me, methyl (16Z,19Z,22R,23E,25E,27Z,29S,31Z)-22,29-dihydroxytetratriaconta-16,19,23,25,27,31-hexaenoate], in experiment [1], the “frequency distribution of pyknotic vs non-pyknotic nuclei (nuclear size peak) after OGD” value is “positive rightward shift” and the “neuroprotection compared to OGD alone (Hoechst-positive nuclei, calcein-positive cell counting or MTT)” value is given as “elicited neuroprotection”. Besides, the “frequency distribution of pyknotic vs non-pyknotic nuclei (nuclear size peak) after NMDA” value in experiment [3] is “positive rightward shift”.
Regarding `CC/C=C\C/C=C\C/C=C\C/C=C\C/C=C\C/C=C\CCCCCCCCCCCCC(=O)O` [32:6n3, (14Z,17Z,20Z,23Z,26Z,29Z)-dotriaconta-14,17,20,23,26,29-hexaenoic acid], in experiment [1], the “neuroprotection after OGD by VLC-PUFA precursor” value is on record as “provide neuroprotection”. For the same compound, the “NMDA excitotoxicity (precursor, 250 nM)” value in experiment [3] (250 nM (FIG. 17 graph D)) was “attenuate NMDA excitotoxicity”. Moreover, in experiment [2], the “Iduna expression (VLC-PUFA)” value is listed as “upregulation”, the “SIRT1 expression (VLC-PUFA)” value was “upregulation”, the Bax protein entry is listed as “down regulated” and the Bcl-2 protein result is reported as “upregulate”. For the same compound, in experiment [2], the Bcl-xL protein entry is “upregulate”, the Bid protein entry is reported as “down regulated”, the Bim protein result was “down regulated” and the “Prohibitin (type-1) expression (VLC-PUFA)” value is “upregulation”.
